Reference: patent publication EP4755881A1 (Wuhan Createrna Science and Technology Co., Ltd., priority 2023, dated 2025)
Read-outs that look alike come from different tables or passages of the source.

Assay: Pharmacokinetic study in rats (oral gavage and tail vein injection, plasma LC-MS/MS)
Format: in vivo
Details: rat; for Cmax: read-out: Cmax
Procedure: Male SPF-grade SD rats (Beijing Vital River Laboratory Animal Technology Co., Ltd.) with a body weight range of 200 to 250 g were used. After acclimatization, the rats were administered a clear solution of the compound of the present disclosure via oral gavage (Po, fasted overnight before administration with free access to water, food returned 4 hours after administration) and tail vein injection (Iv, free access to food and water throughout the administration). Blood samples were collected from the orbital venous plexus/jugular vein of rats at specified time points after administration (blood collection time points for the PO group: 0.167, 0.5, 1, 2, 4, 6, 8, and 24 h; for the IV group: 0.033, 0.167, 1, 2, 4, 6, 8, and 24 h). The concentration of compounds in plasma was detected by LC-MS/MS (AB SCIEX Qtrap4500). Data were analyzed using WinNonlin (version 5.2.1 Pharsight, Mountain View, CA) with a non-compartmental model to obtain PK parameters (including Cmax, C0, Tmax, AUClast, AUCinf, T1/2, etc.).
Table 3: Results of in vivo pharmacokinetic studies of compounds of the present disclosure in rats
The vehicle for the Po group compound was 5% DMSO + 5% ethanol + 60% PEG400 + 30% normal saline; the vehicle for the Iv group compound was 10% ethanol + 20% pure water + 70% PEG400 solution.

Structure (SMILES)	AUC(0-t) (in vivo, SD rats, Iv, 1 mg/kg) [ng·h/mL]	Cmax (in vivo, SD rats, Iv, 1 mg/kg) [ng/mL]	half-life (in vivo, iv, 1 mg/kg, SD rats) [h]	half-life (male, SD, iv, 1 mg/kg) [h]	half-life (male, SD, po, 1 mg/kg) [h]	AUC(0-t) (male, SD rats, Iv, 1 mg/kg) [ng·h/mL]	Cmax (male, SD rats, Iv, 1 mg/kg) [ng/mL]	AUC(0-t) (male, SD rats, Po, 1 mg/kg) [ng·h/mL]	Cmax (male, SD rats, Po, 1 mg/kg) [ng/mL]	also measured
Cc1nc(-c2nnn(C)c2NC(=O)OC(C)CC(C)(F)F)ccc1C#CC1CC1C(=O)O (stereo not drawn) [compound 291]	5000 to 10000	800 to 5000	4.68							AUC(0-t) (in vivo, SD rats, Po, 1 mg/kg): 3000 to 5000 ng·h/mL; Cmax (in vivo, SD rats, Po, 1 mg/kg): 800 to 5000 ng/mL; half-life (in vivo, po, 1 mg/kg, SD rats): 5.15 h
Cc1nc(-c2nnn(C)c2NC(=O)OC(C)CCCF)ccc1C#CC1(CC(=O)O)CC1 (single isomer, unassigned) [280-B]	5000 to 10000	800 to 5000	6.47							AUC(0-t) (in vivo, SD rats, Po, 3 mg/kg): 10000 to 20000 ng·h/mL; Cmax (in vivo, SD rats, Po, 3 mg/kg): 800 to 5000 ng/mL; half-life (in vivo, po, 3 mg/kg, SD rats): 6.57 h
Cc1nc(-c2nnn(C)c2NC(=O)OC(C)CCC(F)F)ccc1C#CC1(CC(=O)O)CC1 (stereo not drawn) [compound 283, 2-(1-((6-(5-((((5,5-difluoropentan-2-yl)oxy)carbonyl)amino)-1-methyl-1H-1,2,3-triazol-4-yl)-2-methylpyridin-3-yl)ethynyl)cyclopropyl)acetic acid]				7.36	6.9	5000 to 10000	800 to 5000	5000 to 10000	200 to 800	
Cc1nc(-c2nnn(C)c2NC(=O)O[C@H](C)CC(C)(C)F)ccc1C#C[C@@H]1CC[C@H]1C(=O)O [compound 306]	3000 to 5000	800 to 5000	7.66							AUC(0-t) (in vivo, SD rats, Po, 1 mg/kg): 3000 to 5000 ng·h/mL; Cmax (in vivo, SD rats, Po, 1 mg/kg): 200 to 800 ng/mL; half-life (in vivo, po, 1 mg/kg, SD rats): 7.2 h
Cc1nc(-c2nnn(C)c2NC(=O)O[C@H](C)CCC(C)(F)F)ccc1C#CC1(CC(=O)O)CC1 [compound 314]	3000 to 5000	800 to 5000	8.42							AUC(0-t) (in vivo, SD rats, Po, 1 mg/kg): 5000 to 10000 ng·h/mL; Cmax (in vivo, SD rats, Po, 1 mg/kg): 200 to 800 ng/mL; half-life (in vivo, po, 1 mg/kg, SD rats): 6.41 h
Cc1nc(-c2nnn(C)c2NC(=O)OC(C)C23CC(F)(C2)C3)ccc1C#CC1(CC(=O)O)CC1 (stereo not drawn) [compound 285]						5000 to 10000	800 to 5000	3000 to 5000	200 to 800	half-life (male, SD rats, Iv, 1 mg/kg): 9.86 h; half-life (male, SD rats, Po, 1 mg/kg): 6.12 h
Cc1nc(-c2nnn(C)c2NC(=O)O[C@H](C)c2ccccc2)ccc1C#C[C@@H]1C[C@H]1C(=O)O [compound 295]				3.46	3.49	5000 to 10000	800 to 5000	10000 to 20000	800 to 5000	
CCCc1ccnc(NCc2c(-c3ccc(C#CC4(CC(=O)O)CC4)c(C)n3)nnn2C)n1 [compound 365]										AUC(0-t) (SD rats, Iv, 1 mg/kg): 1200 to 3000 ng·h/mL; half-life (SD rats, Iv, 1 mg/kg): 7.21 h; Cmax (SD rats, Iv, 1 mg/kg): 800 to 5000 ng/mL; AUC(0-t) (SD rats, Po, 1 mg/kg): 1200 to 3000 ng·h/mL; half-life (SD rats, Po, 1 mg/kg): 5.98 h; Cmax (SD rats, Po, 1 mg/kg): 200 to 800 ng/mL
Cc1nc(-c2nnn(C)c2COC(=O)N(C)CC2CCC2)ccc1C#CC1CC1C(=O)O (racemic) [compound 361]										AUC(0-t) (SD rats, Iv, 1 mg/kg): 1200 to 3000 ng·h/mL; half-life (SD rats, Iv, 1 mg/kg): 3.03 h; Cmax (SD rats, Iv, 1 mg/kg): 800 to 5000 ng/mL; AUC(0-t) (SD rats, Po, 1 mg/kg): 1200 to 3000 ng·h/mL; half-life (SD rats, Po, 1 mg/kg): 2.53 h; Cmax (SD rats, Po, 1 mg/kg): 200 to 800 ng/mL
CCCN(C)C(=O)OCc1c(-c2ccc(C#C[C@@H]3CCC[C@H]3C(=O)O)c(C)n2)nnn1C [compound 355]				6.65	5.53	1200 to 3000	800 to 5000	1200 to 3000	200 to 800	
CCC[C@@H](C)OC(=O)Nc1c(-c2ccc(C#C[C@@H]3C[C@H]3C(=O)O)c(C)n2)nnn1C (mixture of isomers) [compound 224, trans-2-((2-methyl-6-(1-methyl-5-(((((R)-pentan-2-yl)oxy)carbonyl)amino)-1H-1,2,3-triazol-4-yl)pyridin-3-yl)ethynyl)cyclopropane-1-carboxylic acid]				4.78	3.76	5000 to 10000	800 to 5000	5000 to 10000	800 to 5000	
